Assay results taken from US20260102484A1, “ADJUVANTS FOR ENHANCING THE IMMUNE RESPONSE” (priority 2022, published 2026).

Columns and labels:
[1] = test system: Naïve, central memory, and effector T cells (CD4 and CD8); assay: Numbers of naive, central memory and effector memory T cells from lymph nodes and spleen; type: in vivo; details: peptide 9 and 10 ug or 25 ug of DPCA, FIG. 6
Experimental: Next, three populations of T cells (Naïve, central memory, and effector T cells) from lymph nodes and spleens were treated with peptide 9 and 10 ug of DPCA or 25 ug of DPCA. An untreated control group and a control group treated with PBS were also tested.

splenic T cells = assay: Recall response of splenic T cells to peptide #5-palmitic acid, CTFR proliferation dye and FACS; type: in vivo, Mice; details: immunized subcutaneously with peptide #5-palmitic acid CFA + 10 ug; 14 days later; FIG. 7
Experimental: Mice were now immunized with peptide 5 and T cells analyzed for proliferation and by FACS analysis. (FIG. 7) Mice were immunized subcutaneously with peptide #5-palmitic acid CFA mixture with and without 10 ug of 1,4-DPCA. 14 days later, splenic T cells were isolated and co-cultured with irradiated feeders in a ratio of 400k:100k to assess recall responses to peptide #5-palmitic acid. T cells from unimmunized mice were used as control. Only T cells were stained with CTFR proliferation dye in order to ensure detection of specific T cell responses.
In upper FIG. 7 is the FACS flow cytometry plot, where the labelled cells are T cells. […] Below this, is the analyzed proliferation data, where the yellow line is immunized+10 ug of DPCA was given to mice, the grey line is immunized only, the orange line is control, unimmunized but stimulated in culture, and the blue line is control, unstimulated in culture.

[2] = test system: myeloid (GR1+CD11b+) cells and lymphoid (CD8+) cells; assay: FACS analysis of myeloid and lymphoid cells at higher DPCA doses; type: in vivo, mice
Experimental: To explore what is happening at higher DPCA doses and why they may be inhibitory, we tested the effects of different concentrations of DPCA on myeloid (GR1+CD11b+) cells and lymphoid (CD8+) cells. […] Also, the number of GR1+CD11b+myeloid cells is much higher. Within this population of myeloid cells are cells that can suppress T cells.
Additionally, cells were immunized with 50 ug of DPCA and compared to an untreated control. The number of cell in each was determined by FACS analysis. […] (See upper panels showing scatter plots with an increased number of cells in treated cells). An analysis of myeloid cell markers GR1 and CD11b was determined in the control and DPCA treated cells. […] (See lower panels)

[3] = test system: cytokine response to RBD Peptide #9 (IL6, IFNg, TNF, IL17, IL 10); set-up: species or system Mice; details: mouse, in vivo
[4] = test system: antigen-specific (RBD peptide #9) Proliferative T cell response; set-up: species or system Mice; details: mouse, in vivo

O=C(O)c1c[nH]c2c(ccc3cccnc32)c1=O [1,4-DPCA, 1,4-dihydrophenonthrolin-4-one-3-carboxylic acid]
numbers of memory cells (CD4 and CD8) [1]: increased numbers | numbers of naïve cells (CD4 and CD8) [1]: lower numbers | T cell proliferation (FACS flow cytometry plot) (splenic T cells): increased proliferation | number of large cells (FACS scatter plots) ([2]; 50 ug of DPCA vs untreated control, FIG. 5): increase number of large cells | myeloid cell markers GR1 and CD11b ([2]; DPCA treated vs untreated control, FIG. 5 lower panels): large population of myeloid cells | relationship between lymphoid and myeloid cells ([2]; higher DPCA dosage, FIG. 4): Inverse relationship | number of CD8+T cells ([2]; higher DPCA doses, FIG. 4): reduced | number of GR1+CD11b+myeloid cells ([2]; higher DPCA doses, FIG. 4): much higher | IFNg response [3]: most dramatically affected | cytokine response (IL6, IFNg, TNF, IL17, and IL 10) [3]: dose-dependent | antigen-specific (RBD peptide #9) Proliferative T cell response [4]: enhances
